Source: article PMC4277782 (Journal of the American Chemical Society, 2014)

Tested on: ProcM
Assay: ProcM reactions with other
Type: biochemical, Prochlorococcus MIT9313
Settings: preliminary; data not shown

For “ProcA4.3: ProcA substrate (TASGGCDTSMFCY; UniProt Q7V735 65-77, looked up)”, the cyclization kinetics was “some thioether rings form quickly, while others require a much longer time”.
